These results are taken from patent US20050197350A1, “Novel quinoline, tetrahydroquinazoline, and pyrimidine derivatives and methods of treatment related to the use thereof” (TAISHO PHARMACEUTICAL CO., LTD., priority 2003, published 2005).

The subject of the first assay is MCH receptors. As to the kind of experiment: MCH receptor activity class (method not given). Particulars: MCH receptor activity class 1-3 (percent of control at 10^-7 M or IC50).
Consider `Cc1c(NC(=O)NC[C@H]2CC[C@@H](Nc3nc4c(c(N(C)C)n3)CCCC4)CC2)cccc1[N+](=O)[O-]` [compound 2473], for which the class is on record as 3 (Class 3 The value of percent of control at 10^−7 M was more than 60% or the value of IC50 was more than 200 nM.).

The assay is the same for the next values; noted with them: MCH receptor; class by percent of control at 10^-7 M or IC50.
As to `CN(C)c1cc(N[C@H]2CC[C@@H](NC(=O)Cc3ccccc3Br)CC2)nc2ccccc12` [compound 80], the class was 3 (Class 3 The value of percent of control at 10^−7 M was more than 60% or the value of IC50 was more than 200 nM.).
For `COC(=O)c1ccc(NC(=S)N[C@H]2CC[C@@H](Nc3nc4c(c(N(C)C)n3)CCCC4)CC2)cc1` [compound 2019], the class was 3 (Class 3 The value of percent of control at 10^−7 M was more than 60% or the value of IC50 was more than 200 nM.).
Still for that read-out and setting: the figure for `CN(C)c1cc(N[C@H]2CC[C@@H](NC(=O)c3cc(F)c(F)c(F)c3F)CC2)nc2ccccc12` [compound 128] is 3 (Class 3 The value of percent of control at 10^−7 M was more than 60% or the value of IC50 was more than 200 nM.).
In the case of `Cc1cccc(NC(=S)N[C@H]2CC[C@@H](Nc3nc4c(c(N(C)C)n3)CCCC4)CC2)c1` [compound 1947], the class is given as 3 (Class 3 The value of percent of control at 10^−7 M was more than 60% or the value of IC50 was more than 200 nM.).
On the same count and under the same terms, the figure for `Cc1cc(C(=O)N[C@H]2CC[C@@H](Nc3cc(N(C)C)c4ccccc4n3)CC2)c(C)o1` [compound 71, N-(cis-4-{[4-(dimethylamino)quinolin-2-yl]amino}cyclohexyl)-2,5-dimethyl-3-furamide] is 1 (Class 1: The value of percent of control at 10^−7 M was less than 40% or the value of IC50 was less than 50 nM.); for `CN(C)c1nc(N[C@H]2CC[C@@H](NC(=S)NCc3ccccc3F)CC2)nc2c1CCCC2` [compound 2037] it is 3 (Class 3 The value of percent of control at 10^−7 M was more than 60% or the value of IC50 was more than 200 nM.).

The assay is the same for the next values; noted with them: activity class 1-3: percent of control at 10^-7 M or IC50.
With `CN(C)c1nc(N[C@H]2CC[C@@H](NC(=O)Nc3c(F)cc(Br)cc3Br)CC2)nc2c1CCCC2` [compound 1671, N-(2,4-dibromo-6-fluorophenyl)-N′-(cis-4-{[4-(dimethylamino)-5,6,7,8-tetrahydroquinazolin-2-yl]amino}cyclohexyl)urea], the class was 2 (Class 2: The value of percent of control at 10^−7 M was from 40% to 60% or the value of IC′50 was from 50 nM to 200 nM.).

Still in this assay, the particulars now being: activity class per percent of control at 10^-7 M or IC50.
Take `CN(C)c1nc(N[C@H]2CC[C@@H](NC(=O)c3cn(S(=O)(=O)c4ccccc4)c4ccccc34)CC2)nc2c1CCCC2` [compound 1045]: the class is on record as 3 (Class 3 The value of percent of control at 10^−7 M was more than 60% or the value of IC50 was more than 200 nM.).

Staying with this assay, now noted: class 1-3 by percent of control at 10^-7 M or IC50.
In the case of `CCOc1ccccc1C(=O)NC[C@H]1CC[C@@H](Nc2nccc(N(C)C)n2)CC1` [compound 417], the class is 3 (Class 3 The value of percent of control at 10^−7 M was more than 60% or the value of IC50 was more than 200 nM.).
Same read-out and setting: the figure for `CN(C)c1nc(N[C@H]2CC[C@@H](NC(=O)c3cc(F)c(Cl)cc3Cl)CC2)nc2c1CCCC2` [compound 475] is 3 (Class 3 The value of percent of control at 10^−7 M was more than 60% or the value of IC50 was more than 200 nM.).

The assay is the same for the next values; noted with them: class by percent of control at 10^-7 M or IC50.
As to `COc1cc(CNC[C@H]2CC[C@@H](Nc3nc4c(c(N(C)C)n3)CCCC4)CC2)cc(OC)c1` [compound 1380], the class is recorded as 2 (Class 2: The value of percent of control at 10^−7 M was from 40% to 60% or the value of IC′50 was from 50 nM to 200 nM.).
Turning to `CN(C)c1nc(N[C@H]2CC[C@@H](NC(=O)Nc3cc(F)ccc3F)CC2)nc2c1CCCC2` [compound 1848], the class is on record as 3 (Class 3 The value of percent of control at 10^−7 M was more than 60% or the value of IC50 was more than 200 nM.).
As for `CN(C)c1nc(N[C@H]2CC[C@@H](NC(=O)c3cc(Br)c(Br)s3)CC2)nc2c1CCCC2` [compound 977, 4,5-dibromo-N-(cis-4-{[4-(dimethylamino)-5,6,7,8-tetrahydroquinazolin-2-yl]amino}cyclohexyl)thiophene-2-carboxamide], the class was 2 (Class 2: The value of percent of control at 10^−7 M was from 40% to 60% or the value of IC′50 was from 50 nM to 200 nM.).
Still for that read-out and setting: the result for `CN(C)c1nc(N[C@H]2CC[C@@H](NC(=O)Nc3ccc(I)cc3)CC2)nc2c1CCCC2` [compound 1892] reads 3 (Class 3 The value of percent of control at 10^−7 M was more than 60% or the value of IC50 was more than 200 nM.).
Same read-out and setting: the result for `CN(C)c1ccnc(N[C@H]2CC[C@@H](NC(=O)Cc3c[nH]c4ccccc34)CC2)n1` [compound 850] reads 2 (Class 2: The value of percent of control at 10^−7 M was from 40% to 60% or the value of IC′50 was from 50 nM to 200 nM.); that for `CN(C)c1ccnc(N[C@H]2CC[C@@H](CNC(=O)Cc3cccs3)CC2)n1` [compound 398], 3 (Class 3 The value of percent of control at 10^−7 M was more than 60% or the value of IC50 was more than 200 nM.); that for `CN(C)c1nc(N[C@H]2CC[C@@H](CNCCCCc3ccc([N+](=O)[O-])cc3)CC2)nc2c1CCCC2` [compound 1512], 3 (Class 3 The value of percent of control at 10^−7 M was more than 60% or the value of IC50 was more than 200 nM.).
Regarding `COc1cc(CNC[C@H]2CC[C@@H](Nc3nc4c(c(N(C)C)n3)CCCC4)CC2)cc(I)c1O` [compound 1381], the class is given as 1 (Class 1: The value of percent of control at 10^−7 M was less than 40% or the value of IC50 was less than 50 nM.).
The same measure, in the same setting: the result for `CN(C)c1cc(N[C@H]2CC[C@@H](CNC(=O)C3c4ccccc4Oc4ccccc43)CC2)nc2ccccc12` [compound 810] reads 3 (Class 3 The value of percent of control at 10^−7 M was more than 60% or the value of IC50 was more than 200 nM.).
Same read-out and setting: the result for `Cc1cccc(CNC(=O)N[C@H]2CC[C@@H](Nc3nc4c(c(N(C)C)n3)CCCC4)CC2)c1` [compound 1836] reads 3 (Class 3 The value of percent of control at 10^−7 M was more than 60% or the value of IC50 was more than 200 nM.); that for `C=CCOc1ccccc1CNC[C@H]1CC[C@@H](Nc2nccc(N(C)C)n2)CC1` [compound 1298], 1 (Class 1: The value of percent of control at 10^−7 M was less than 40% or the value of IC50 was less than 50 nM.).
Same read-out and setting: the figure for `CN(C)c1cc(N[C@H]2CC[C@@H](CNC(=O)c3ccccc3I)CC2)nc2ccccc12` [compound 222] is 3 (Class 3 The value of percent of control at 10^−7 M was more than 60% or the value of IC50 was more than 200 nM.).

Still in this assay, the particulars now being: class by percent of control at 10^−7 M or IC50.
For the molecule `Cc1cc(N(C)C)nc(N[C@H]2CC[C@@H](NC(=O)c3ccc(C(F)(F)F)c(F)c3)CC2)n1` [compound 2960, N-(cis-4-{[4-(dimethylamino)-6-methylpyrimidin-2-yl]amino}cyclohexyl)-3-fluoro-4-(trifluoromethyl)benzamide], the class was 2 (Class 2: The value of percent of control at 10^−7 M was from 40% to 60% or the value of IC′50 was from 50 nM to 200 nM.).
Still for that read-out and setting: the figure for `Cc1ccc(C(=O)N[C@H]2CC[C@@H](Nc3ncc(C)c(N(C)C)n3)CC2)cc1` [compound 2939, N-(cis-4-{[4-(dimethylamino)-5-methylpyrimidin-2-yl]amino}cyclohexyl)-4-methylbenzamide] is 1 (Class 1: The value of percent of control at 10^−7 M was less than 40% or the value of IC50 was less than 50 nM.).
`COc1ccc(C(=O)NC[C@H]2CC[C@@H](Nc3ncc(C)c(N(C)C)n3)CC2)cc1` [compound 2693]: the class is reported as 3 (Class 3 The value of percent of control at 10^−7 M was more than 60% or the value of IC50 was more than 200 nM.).
